Laboratory results: US20030109448A1, “Methods of promoting uptake and nuclear accumulation of polyamides in eukaryotic cells” (priority 2001, published 2003)
“Also recorded” adds a separate entry of the source.

Columns and labels:
RSF cells = assay: Effect of P-gp inhibitors on intracellular distribution of Compound 1; format: cell-based, human
[1] = test system: HCT116 human colon cancer cells; assay: Intracellular distribution of fluorescent-labeled polyamides by fluorescence microscopy; format: cell-based; details: HCT116, overnight at 37° C.
Protocol: Previously established low passage number human colon cancer HCT116 cells were cultured as monolayers and maintained at 37° C. in a humidified incubator with 5% CO2 in buffered medium consisting of RPMI 1640 (GIBCO, Life Technologies, Rockville, Md.) supplemented with 2 mM L-glutamine, 10% fetal bovine serum (GIBCO), 100 Units/ml Penicillin-Streptomycin and 25 μg/ml Gentamicin. Previously established low passage number human rheumatoid synovial fibroblasts (RSFs) were cultured in DMEM (GIBCO 11995-040) supplemented with 15% FBS, 1% glutamine, and 50 µg/ml Gentamycin.
HCT116 cells or RSF cells (8×10^5) were plated on 25-mm round glass coverslips in 30-mm wells and incubated for 24 hr to allow cells to adhere. […]
Live wet mounted cells were examined and photographed using an Olympus AX70 Microscope equipped with fluorescence optics and a Sony 3CCD color video camera. DAPI was detected using a bandpass 405±20 nm excitation filter, a 420 nm dichroic beam splitter, and a ≧450 emission filter (DAPI filter set). BODIPY and fluorescein conjugated polyamides were selectively detected using a bandpass 485±11 nm excitation filter, a 505 nm dichroic beam splitter, and a 530±15 nm emission filter (fluorescein filter set). Organelle-specific probes were detected using a 546+/−5 nm excitation filter, a 570 nm dichroic beam splitter and a 590 nm longpass emission filter (Rhodamine filter set). […]

| Compound | effect on intracellular distribution of Compound 1 (RSF cells) | location of Compound 1 green fluorescence in presence of inhibitor (RSF cells) | fluorescent-filled vesicles [1] | nuclear fluorescence (nuclear localization) [1] |
| --- | --- | --- | --- | --- |
| COc1ccc(CCN(C)CCCC(C#N)(c2ccc(OC)c(OC)c2)C(C)C)cc1OC (stereo not shown) [verapamil] | dramatic reduction in cytoplasmic fluorescence accompanied by a re-distribution of Compound 1 to the nucleus | observed in the nuclei in the presence of verapamil |  |  |
| Im-Im-Py-Py-γ-Py-Py-Py-Py-β-Ta-FITC [Compound 2] |  |  | absent | nuclei are brightly stained; also recorded: observed in the nuclei of the cells |
